Laboratory results: a melting point compilation (Tetko et al.; mined from patent text by program, amines drawn as free bases though some values may be those of a salt)

In the case of `CN(C)c1cccc2c(S(=O)(=O)Nc3ccc(Cl)cn3)cccc12`, the melting point is reported as 160 to 162 °C. For `CCC1Cc2c(Br)cccc2C1O[Si](C)(C)C` (stereo not given), the melting point was 133 to 135 °C. `CC(C)c1ccc(-c2cn(C)cc(-c3ccccc3)c2=O)cc1` gave a melting point of 159 °C. In the case of `Cc1oc(-c2ccccc2)nc1CCOc1ccc(/C=C/CO)cc1`, the melting point is reported as 127 to 128 °C. In the case of `O=C(Nc1ccc2[nH]ccc2c1)c1cc2cc(F)ccc2n1Cc1cccc(F)c1`, the melting point is reported as 158 to 163 °C. `CCOC(=O)C1=CC2(CCC1S(=O)(=O)Nc1ccc(F)cc1Cl)OCCCO2` (stereo not given) gave a melting point of 120 to 121 °C. Compound `CCc1[nH]n(C2CCCC2)c2nc(Cc3ccc(OC(=O)c4ccc(CN(CC)CC)cc4)cc3)nc(=O)c1-2` has a melting point of 143 to 145 °C. `CC(C)=CCCC(C)C1CCC2C3CC=C4CC(O)CC(O)C4(C)C3CCC12C` (stereo not given) showed a melting point of 137 to 139 °C. With `O=C(NCC(Cc1ccccc1)C(=O)Nc1n[nH]c(=S)s1)OCc1ccccc1` (stereo not given) the melting point was 88 to 90 °C. `CCNc1nc(C)c(-c2ccnc(Nc3ccc(N4CCN(C(C)=O)CC4)cc3)n2)s1` showed a melting point of 208 to 209 °C. In the case of `CN(C)CCNC(=S)Nc1ccc(-c2nnc(CSCCOc3ccccc3)o2)cc1`, the melting point is reported as 155 to 158 °C. For `CCCCCCNC(=S)NC(=O)c1ccc(C#N)cc1`, the melting point was 95 to 96 °C. Compound `Cc1cc(OCCN2CCOCC2)nn1-c1ccc2ccc(O)cc2c1` has a melting point of 103 to 107 °C. For `CCOC(=O)c1cnc2c(OCc3ccccc3)c(F)c(F)cc2c1O`, the melting point was 200 to 201 °C. Compound `CN(C)C(c1ccccc1)c1cc(C(C)(C)C)cc(C(C)(C)C)c1O` (stereo not given) has a melting point of 120 to 123 °C. With `Clc1ccc(CN2CC=C(/C=C/c3ccc4[nH]ccc4c3)CC2)cc1` the melting point was 165 °C. With `CCOC(=O)C1=C(COCCNC(=O)N2CCNC2=O)NC(C)=C(C(=O)OC)C1c1ccccc1Cl` (stereo not given) the melting point was 145 °C. Work on `C[Si](C)(C)c1cc(C(F)=C(F)C(F)(F)F)c(S(N)(=O)=O)s1` yielded a melting point of 129 to 140 °C. For `CNS(=O)(=O)c1cc(C(=O)c2c(C)[nH]c3ccccc23)ccc1Cl`, the melting point was 246 °C. `CC(C)CCc1cc(C(O)=S)cc(N)c1C(=O)c1ccccc1` showed a melting point of 141 to 142 °C. For `CC(=O)c1ccc2c(c1)Sc1cc(Br)ccc1O2`, the melting point was 143 to 145 °C. For `CC(C)c1cc2c(c(C(C)C)c1)Oc1ccc(C(N)=O)cc1N(CCN(C)C)C2=O`, the melting point was 223 to 225 °C. `CN(CCCO)c1ccnc(CSc2nc3ccccc3[nH]2)c1Cl` gave a melting point of 127 to 130 °C. `O=C(O)C1C=CCn2c(=O)n(CCS)c(=O)n21` (stereo not given) gave a melting point of 156 to 158 °C. `O=c1[nH]c2ccncc2c2nc(-c3ccco3)nn12` showed a melting point of 312 to 313 °C. With `Cn1ncc2cc(NC(=O)Nc3ccc(C(F)(F)F)cc3)ccc21` the melting point was 252 to 254 °C. In the case of `O=C(CCO)N1c2ccccc2CCC1CN1CCN(c2cccc3[nH]ccc23)CC1` (stereo not given), the melting point is reported as 58 to 61 °C. With `COc1ccc2c3c(c(=O)oc2c1)CN(Cc1ccc(C(F)(F)F)cc1)CC3` the melting point was 203 to 206 °C. Work on `CCCC(=O)NN=C(C)C1CCC=C(C)O1` (stereo not given) yielded a melting point of 72.8 °C. `CC(=O)N1C(C)(C)CC(O)CC1(C)C` gave a melting point of 102 to 104 °C. `CC(C)(CC(=O)O)C(Br)CC(Cl)(Cl)Cl` (stereo not given) gave a melting point of 123 to 124 °C. For `CN(C)S(=O)(=O)NC1CCC(CCN2CCC(c3cccc4c3CCO4)CC2)CC1` (stereo not given), the melting point was 122 °C. With `C=C(C)COc1ccc(C(=O)C=Cc2cccc(OC)c2)c(O)c1` the melting point was 97 to 100 °C. With `Cc1cnc(C(=O)NCCc2ccc(S(N)(=O)=O)cc2)cn1` the melting point was 190 to 200 °C. `Cc1cc(Cl)ccc1N1CCCN(CC(C)C)C1=S` gave a melting point of 88 to 90 °C. With `Cc1cc(N)c(S(N)(=O)=O)cc1-c1ccccn1` the melting point was 229 to 231 °C. Compound `CNc1ccccc1CNC(=O)C1Cc2ccccc2N1S(=O)(=O)c1ccc(-c2cccc(C(F)(F)F)c2)cc1` (stereo not given) has a melting point of 86 °C. With `Cc1cc([C@@H]2C[C@H]2c2nc3ccccc3n2C)cc(-n2nc(C)nc2C)n1` (relative stereo) the melting point was 157 to 159 °C. In the case of `CCOC(=O)c1[nH]c2c(C)ccc(C)c2c1-c1ccccc1`, the melting point is reported as 107 to 108 °C. With `COc1ccccc1C(=O)Nc1nc2c(s1)CN(C)CC2` the melting point was 164 to 166 °C.
